Data on five compounds can be found in patent US20060234276A1, “Methods of treatment of type 2 diabetes” (priority 1998, published 2006).

Assay [1] deals with mouse pancreatic islets. Briefly: Static incubation of isolated pancreatic islets, insulin secretion. The format is cell-based. To be noted: for insulin secretory responses to 20 mM glucose in presence of other protease inhibitors: 100 μM inhibitor; for effect on basal or glucose-stimulated insulin secretion: 100 μM Cathepsin B Inhibitor II, 20 μM Lactacystin. As to the method: Static incubation of isolated pancreatic islets. Isolation of mouse pancreatic islets was accomplished using collagenase digestion as previously described (Pontoglio et al., 1998). […] Triplicate groups of 5 islets were then incubated in borosilicate tubes containing 1 ml of KRB with the same concentration of inhibitor and various insulin secretagogues for one hour in a moving water bath at 37° C. The reaction was stopped by placing the tubes on ice and an aliquot of the buffer was removed for measurement of insulin levels. Control studies, in which the incubation mixture contained vehicle (0.1% DMSO) only, were performed using aliquots of the same batch of islets
Assay methods. Insulin concentrations were measured by a double antibody radioimmunoassay using a rat insulin standard. The intra-assay coefficient of variation for this technique is 7%. All samples were assayed in duplicate.

For assay [2], the system named is perifused mouse islets. Briefly: Insulin secretion from perifused islets. The format is cell-based. The note with it: 4 hr preincubation; 100 μM ALLM, 200 μM E-64-d. As to the method: Insulin secretion from perifused islets. Insulin secretion from perifused islets was measured using a modification of a previously described protocol (Pontoglio et al., 1998; Sreenan et al., 1998).

For assay [3], the system named is mouse islets. Briefly: Islet NAD(P)H autofluorescence response. The format is cell-based. As to the method: (§1) Measurement of islet [Ca^2+]i, and NAD(P)H. Islet [Ca^2+]i and NAD(P)H were measured as previously described (Pontoglio et al., 1998; Dukes et al., 1998).
The test system of assay [4] is mouse islets. Briefly: Glucose utilization and oxidation rates in islets. It is filed as cell-based. The protocol: Glucose utilization and oxidation rates. Glucose utilization and oxidation rates were measured as previously described (Dukes et al., 1998; Zhou et al., 1996) in mouse islets cultured as described above in the presence or absence of calpain inhibitors.

Assay [5] has as its system soleus muscle strips. Briefly: Glycogen synthesis rates in skeletal muscle. It is filed as cell-based, rat. The note with it: 100 μM ALLM or 200 μM E-64-d. The source says:
Glycogen synthesis rates in skeletal muscle.

The subject of assay [6] is isolated β-cells. Briefly: Membrane capacitance recordings (exocytosis) in isolated β-cells. The format is cell-based, mouse. To be noted: 4 days culture with inhibitor. As to the method: Isolation of pancreatic β-cells. Single β-cells were obtained from isolated islets dispersed by gentle trituration (120 strokes through a 200 μl pipette tip) in Ca^2+ and Mg^2+-free PBS containing […]. Cells were plated on glass coverslips and maintained in culture in RPMI containing 11.6 mM glucose for 48-96 hr.
Capacitance recordings. Capacitance measurements were made with the phase-tracking technique in which a 60 mV peak-to-peak sine wave was superimposed on a holding potential of −80 mV as previously described. Conductance and capacitance values were continuously generated and recorded. The whole-cell capacitance was canceled with the slow capacitance compensation; unbalancing the slow capacitance compensation by 100 fF provided the capacitance calibration signal used to calculate changes in membrane capacitance. The sinusoidal voltage template was interrupted to deliver depolarizations to a cell. Beta cells were stimulated with a train of ten step depolarizations to +20 mV (HP=−80 mV). Each step depolarization lasted 150 ms and was separated by 400 ms interpulse duration. Capacitance measurements were carried out in the perforated whole-cell configuration. The data were collected at a 500 μsec sampling rate and filtered at 5 kHz. Recordings with series resistance >20 MΩ were discarded. Series resistance compensation was applied in all recordings.
The recording solution for the capacitance measurements contained (in mM): 130 NaCl, 2 glucose, 10 Na-HEPES, 1 MgCl2, 2 KCl, and 5 CaCl2, pH 7.3 with NaOH. The pipette solution contained (in mM): 135 Cs-glutamate, 10 Na-HEPES, 9.5 NaCl, 0.5 TEACl, and 0.5 CaCl2, pH7.3 with CsOH. The pipettes were backfilled with an identical solution to which amphotericin B (final concentration of 0.5 mg/ml) was added and then sonicated. The amphotericin B stock solution (125 mg/ml) was kept frozen at −20° C. and used for one week. ALLM pre-treatment was as described above (see patch-clamp electrophysiology section). All electrophysiological recordings were carried out at room temperature (22-24° C.)

Assay [7] relates to mouse islets. Briefly: Measurement of islet [Ca2+]i (Fura-2). The format is cell-based. The protocol: as §1
Insulin secretory responses to glucose and most other secretagogues is mediated by a rise in intracellular free calcium ([Ca^2+]i). We therefore measured [Ca^2+]i responses to glucose, KIC and KCl using Fura-2 as the Ca^2+ indicator. In comparison to the responses from the control islets, the most prominent abnormality in [Ca^2+]i responses to glucose and KIC was a delay of the [Ca^2+]i responses (FIG. 21). The mean time interval between administration of 14 mM glucose and the point of half maximal response (T1/2.) was 120±14 seconds in control islets. […] There was no delay in the appearance of [Ca^2+]i response to KCl, nor was the magnitude of the response reduced.

Assay [8] deals with rat adipocytes. Briefly: 2-Deoxyglucose uptake into adipocytes. The format is cell-based. The note with it: 100 μM ALLM or 200 μM E-64-d. The protocol:
Adipocytes were isolated from epididymal fat pads of 3 month old male Wistar rats as described previously (Robdell, 1964) with the following modification: fat pads were minced to 1-2 mm pieces and incubated for ˜25 min at 37° C. with collagenase I (1 mg/ml, Worthington Biochemicals, Lakewood, N.J.) in KRB containing 10 mM Hepes (pH 7.4), 0.2% BSA and 2 mM sodium pyruvate. The cell suspension was filtered through a nylon mesh (134 μM, Spectrum Lab., Laguna Hills, Calif.) washed three times by floating and allowed to rest for 45 min in the KRB. […] Then another 50 μl of KRB containing 5 mM 2-DOG (final concentration 1 mM), 0.5 μCi of 2-deoxy-[2,6-^3H]glucose was added and cells were incubated for a further 5 min at 25° C. The transport was stopped by adding cytochalasin B (final concentration 50 μM) and cells were spun through 250 μl of dinonyl phthalate oil (Fisher Scientific, Pittsburgh, Pa.). Cells were then transferred to scintillation vials for counting.

The subject of assay [9] is rat soleus muscle strips. Briefly: 2-Deoxyglucose uptake into soleus muscle strips. It is filed as cell-based. The note with it: 100 μM ALLM or 200 μM E-64-d. The protocol:
2-Deoxyglucose uptake into skeletal muscle and adipose tissue. 2-deoxyglucose (2-DOG) uptake by isolated strips of soleus muscle from normal Wistar rats was measured using a modification of a previously described protocol (Burant et al., 1984). […] Muscles were then extracted and 2-DOG uptake calculated as previously described (Burant et al., 1984).

Assay [10] concerns calpain. Briefly: Calpain activity in mouse pancreatic islets (Boc-Leu-Met-CMAC cleavage). The format is cell-based.
For assay [11], the system named is islets. Briefly: Insulin content of islets after 48 h inhibitor exposure. It is filed as cell-based, mouse. To be noted: 48 hours treatment.

Square brackets hold non-standard residues; d marks the D form. Peptide text beside a SMILES is read from it. * marks the point of attachment. Sta = CC(C)C[C@H](N)[C@@H](O)CC(=O)O; Isovaleryl = CC(C)CC(=O)*

For `CC(=O)N[C@@H](CC(C)C)C(=O)N[C@H](C(=O)N[C@H](C=O)CCCCN)C(C)C` [Cath B Inhibitor II] (Ac-Leu-Val-Lys-aldehyde), in assay [1], the “insulin secretory responses to 20 mM glucose in presence of other protease inhibitors” value is listed as “not altered”. In addition, the “effect on basal or glucose-stimulated insulin secretion” value in [1] (48 h) is on record as “did not significantly affect”.
On to `CCOC(=O)[C@H]1O[C@@H]1C(=O)N[C@@H](CC(C)C)C(=O)NCCC(C)C` [E-64-d, ethyl (+)-(2S,3S)-3-[(S)-3-Methyl-1-(3-methylbutylcarbamoyl)butyl-carbamoyl]-2-oxiranecarboxylate], for which the “enhancement of insulin secretory response to 20 mM glucose in dynamic islet perifusion” value in assay [2] was “also observed”. In addition, the “NAD(P)H response to increase in glucose from 2 to 14 mM” value in assay [3] (100 μM ALLM or E-64-d, 4 hr preincubation) came to 2.8±0.3 fold increase. For the same compound, in [3] (48 h treated islets), the “NAD(P)H responses to KIC vs control” value was “significantly reduced” and the “NAD(P)H responses to glucose vs control” value was “comparable”. The “rate of glucose utilization at basal glucose” value in assay [4] (2 mM glucose, 100 μM ALLM or 200 μM E-64-d, 4 h) is given as 15.5±4 pmol/islet/hr. In assay [4] (20 mM glucose, 100 μM ALLM or 200 μM E-64-d, 4 h), the “rate of glucose utilization at stimulatory glucose” value came out at 79.5±9.5 pmol/islet/hr. Also, the “rate of basal glucose utilization and oxidation at 3.3 mM glucose” value in assay [4] (48 h treated islets) is “no significant changes”. The “rates of glycolysis and glucose oxidation at stimulating concentrations of glucose” value in assay [4] (48 h treated islets vs controls) is reported as “significantly reduced”. Further, the “glucose oxidation rate at basal glucose” value in assay [4] (basal glucose, ALLM or E-64-d, 4 h) was determined as 5.2±0.4 pmol/islet/hr. In addition, the “glucose oxidation rate at stimulatory glucose” value in assay [4] (stimulatory glucose, ALLM or E-64-d, 4 h) is on record as 40.0±2.4 pmol/islet/hr. For the same compound, in [5] (insulin 6 nM), the “magnitude of insulin-induced increase in muscle glycogen synthesis” value was determined as 0.31±0.09 nmol glucose/mg/hr and the “rate of muscle glycogen synthesis with insulin” value is reported as 0.80±0.14 nmol glucose/mg/hr. For the same compound, the “rate of muscle glycogen synthesis without insulin” value in assay [5] (no insulin) was 0.49±0.08 nmol glucose/mg/hr. In addition, the “rates of exocytosis in β-cells” value in assay [6] is given as “significantly lower rates of exocytosis”. Also, in [7] (4 hr preincubation, 14 mM glucose), the “[Ca2+]i response to high glucose” value was “not associated with increases in [Ca^2+]i”. In addition, in assay [7] (48 h treated islets), the “[Ca2+]i response to glucose ramp (2 to 26 mM over 48 mins)” value is on record as “diminished”; the “[Ca2+]i responses to 30 mM KCl vs control” value is “not different”; the “integrated [Ca2+]i responses (area under the curves) to glucose and KIC vs control” value was “significantly smaller”. Moreover, the “T1/2 of [Ca2+]i response to 14 mM glucose (time to half maximal response)” value in assay [7] (48 h treated islets, control 120±14 seconds) turned out to be 4.42 ± 1.08 min. Further, the “T1/2 of [Ca2+]i response to KIC” value in [7] (48 h treated islets, control 125±9) is 5.5 ± 0.12 min. Besides, the “2-DOG uptake into adipocytes with insulin” value in assay [8] (insulin 12 nmol/L) was determined as 749±129 pmol/2×10^5 cells/5 min. Moreover, in assay [8] (no insulin), the “2-DOG uptake into adipocytes without insulin” value was determined as 361±29 pmol/2×10^5 cells/5 min. Moreover, the “insulin secretory response to 20 mM glucose after recovery” value in assay [1] (48-h treatment, then 2 days recovery without inhibitor) is given as “essentially normal insulin secretory response”. In assay [1] (4 hr exposure, ALLM 250 μM, E-64-d 200 μM, 2 mM glucose), the “effect on insulin secretion at 2 mM glucose” value is “not observed”. The “basal insulin secretion (2 mM glucose) vs control-treated islets” value in assay [1] (48 hours exposure) is “no significant difference”. Besides, in assay [1] (48 h treated islets), the “insulin secretory response to 30 mM KCl” value was “significantly reduced”, the “insulin secretory response to carbachol” value is “attenuated”, the “insulin secretory response to glyceraldehyde” value was “responded normally” and the “insulin secretory response to mastoparan” value was “attenuated”. Also, in assay [1] (48 h treated islets), the “insulin-secretory response to keto-isocaproic acid (KIC)” value is “decreased”. The “insulin secretory responses to glucose (summary statement of Example 8)” value in assay [1] (isolated mouse islets, introductory summary, no conditions given) is recorded as “increase in glucose induced insulin secretion”. Besides, in [9] (insulin 12 nM), the “2-deoxyglucose uptake into soleus muscle strips with insulin” value was 0.36±0.02 (mol/ml H20/30 mins. Further, the “2-deoxyglucose uptake into soleus muscle strips without insulin” value in [9] (no insulin) is reported as 0.31±0.02 (mol/ml H20/30 mins. For the same compound, the “area under the curve of rate of generation of fluorescent calpain product” value in assay [10] (200 μM inhibitor, 4 hr incubation) is listed as 45±5 % of control values. Moreover, in assay [10] (48 h treatment, 100 μM ALLM or 200 μM E-64-d), the “residual calpain activity in intact islets” value is reported as 55±4 % of control treated islets. For the same compound, the “insulin content in islets vs control islets” value in [11] is given as “comparable”.
In the case of `CC(=O)N[C@@H](CSC(=O)[C@]1([C@@H](O)C(C)C)NC(=O)[C@H](C)[C@@H]1O)C(=O)O` [Lactacystin], the “effect on basal or glucose-stimulated insulin secretion” value in [1] (48 h) is on record as “did not significantly affect”.
As to `CC(C)CC(=O)N[C@H](C(=O)N[C@H](C(=O)N[C@@H](CC(C)C)[C@@H](O)CC(=O)N[C@@H](C)C(=O)N[C@@H](CC(C)C)[C@@H](O)CC(=O)O)C(C)C)C(C)C` [pepstatin A] (Isovaleryl-VV[Sta]A[Sta]-OH), the “insulin secretory responses to 20 mM glucose in presence of other protease inhibitors” value in [1] is recorded as “not altered”.
Regarding MDL28170, in assay [1] (48 h, 100 μM ALLM (so in the source), 50 μM MDL28170), the “inhibition of 20 mM glucose-stimulated insulin secretion” value is reported as “approximately 60%”.
